Patent US20130281399A1, “TREATMENT OF DISEASES BY EPIGENETIC REGULATION” (RVX Therapeutics Inc., priority 2012, published 2013)

What follows are compounds tested against T1, Brd4 bromodomain 1 (Homo sapiens, UniProt O60885) (assay: Inhibition of binding of tetra-acetylated histone H4 to Brd4 bromodomain 1 (TR-FRET)). Conditions: His-tagged Brd4 bromodomain 1 200 nM, tetra-acetylated histone H4 peptide 25-50 nM, 2 hours room temperature.
T1 construct: made in house; host or cells: E. coli BL21(DE3)
Procedure: Proteins were cloned and overexpressed with a N-terminal 6×His tag, then purified by nickel affinity followed by size exclusion chromatography. Briefly, E. coli BL21(DE3) cells were transformed with a recombinant expression vector encoding N-terminally Nickel affinity tagged bromodomains from Brd2, Brd3, Brd4. Cell cultures were incubated at 37° C. with shaking to the appropriate density and induced overnight with IPTG. The supernatant of lysed cells was loaded onto Ni-IDA column for purification. Eluted protein was pooled, concentrated and further purified by size exclusion chromatography. Fractions representing monomeric protein were pooled, concentrated, aliquoted, and frozen at −80° C. for use in subsequent experiments.
For inhibition assays, serially diluted test compound was added to these reactions in a 0.2% final concentration of DMSO. Final buffer concentrations were 30 mM HEPES pH 7.4, 30 mM NaCl, 0.3 mM CHAPS, 20 mM phosphate pH 7.0, 320 mM KF, 0.08% BSA). […] The binding inhibitory activity was shown by a decrease in 665 nm fluorescence relative to 620 nm. IC50 values were determined from a dose response curve.

SMILES	FRET activity (<50 uM)
CC(C)N1CCN(c2ccc(-c3nc4cccc(Cl)c4c(=O)[nH]3)cc2)CC1 [Example 41, 5-Chloro-2-(4-(4-isopropylpiperazin-1-yl)phenyl)quinazolin-4(3H)-one]	Inactive
COc1cc(OC)c2c(=O)[nH]c(-c3ccc(N4CCC(=O)CC4)cc3)nc2n1 [Example 52, 5,7-Dimethoxy-2-(4-(4-oxopiperidin-1-yl)phenyl)pyrido[2,3-d]pyrimidin-4(3H)-one]	Inactive
COc1cc(OC)c2c(=O)[nH]c(-c3ccc4[nH]c(CO)cc4c3)nc2c1 [Example 53, 2-(2-(Hydroxymethyl)-1H-indol-5-yl)-5,7-dimethoxyquinazolin-4(3H)-one]	Active
COc1cc(OC)c2c(=O)[nH]c(-c3ccc4[nH]c(CCO)cc4c3)nc2c1 [Example 54, 2-(2-(2-Hydroxyethyl)-1H-indol-5-yl)-5,7-dimethoxyquinazolin-4(3H)-one]	Active
COc1cc(OC)c2c(=O)[nH]c(-c3ccc4[nH]c(CN5CCCC5)cc4c3)nc2c1 [Example 55, 5,7-Dimethoxy-2-(2-(pyrrolidin-1-ylmethyl)-1H-indol-5-yl)quinazolin-4(3H)-one]	Active
COc1cc(OC)c2c(=O)[nH]c(-c3ccc4[nH]c(CCN5CCCC5)cc4c3)nc2c1 [Example 57, 5,7-Dimethoxy-2-(2-(2-(pyrrolidin-1-yl)ethyl)-1H-indol-5-yl)quinazolin-4(3H)-one]	Active
COc1cc(OC)c2c(=O)[nH]c(-c3ccc4[nH]c(CN(C)C)cc4c3)nc2c1 [Example 58, 2-(2-((Dimethylamino)methyl)-1H-indol-5-yl)-5,7-dimethoxyquinazolin-4(3H)-one]	Active
COc1cc(OC)c2c(=O)[nH]c(-c3ccc(Nc4ccncc4)cc3)nc2c1 [Example 60, 5,7-Dimethoxy-2-(4-(pyridin-4-ylamino)phenyl)quinazolin-4(3H)-one]	Active
COc1cc(OC)c2c(=O)[nH]c(-c3cc(C)c(OCCN4Cc5ccccc5C4)c(C)c3)nc2c1 [Example 65, 2-(4-(2-(Isoindolin-2-yl)ethoxy)-3,5-dimethylphenyl)-5,7-dimethoxyquinazolin-4(3H)-one]	Active
COc1cc(OC)c2c(=O)[nH]c(-c3cc(C)c(OCCN4CCCCC4)c(C)c3)nc2c1 [Example 72, 2-(3,5-Dimethyl-4-(2-(piperidin-1-yl)ethoxy)phenyl)-5,7-dimethoxyquinazolin-4(3H)-one]	Active
COc1cc(OC)c2c(=O)[nH]c(-c3cc(C)c(OCCCN4CCCC4)c(C)c3)nc2c1 [Example 75, 2-(3,5-Dimethyl-4-(3-(pyrrolidin-1-yl)propoxy)phenyl)-5,7-dimethoxyquinazolin-4(3H)-one]	Active
Cc1cc(-c2nc3cc(F)cc(N4CCCC4)c3c(=O)[nH]2)cc(C)c1OCCN1CCCC1 [Example 82, 2-(3,5-Dimethyl-4-(2-(pyrrolidin-1-yl)ethoxy)phenyl)-7-fluoro-5-(pyrrolidin-1-yl)quinazolin-4(3H)-one]	Inactive
Cc1cc(-c2nc3cc(F)cc(F)c3c(=O)[nH]2)cc(C)c1OCCN1CCCC1 [Example 85, 2-(3,5-Dimethyl-4-(2-(pyrrolidin-1-yl)ethoxy)phenyl)-5,7-difluoroquinazolin-4(3H)-one]	Inactive
COc1cc(OC)c2c(=O)[nH]c(-c3cc(C)c(OCCN4C(=O)c5ccccc5C4=O)c(C)c3)cc2c1 [Example 90, 2-(2-(4-(6,8-Dimethoxy-1-oxo-1,2-dihydroisoquinolin-3-yl)-2,6-dimethylphenoxy)ethyl)isoindoline-1,3-dione]	Inactive
Cc1cc(-c2nc3nc(OC(C)C)cc(OC(C)C)c3c(=O)[nH]2)cc(C)c1OCCN1CCCC1 [Example 91, 2-(3,5-Dimethyl-4-(2-(pyrrolidin-1-yl)ethoxy)phenyl)-5,7-diisopropoxypyrido[2,3-d]pyrimidin-4(3H)-one]	Inactive
COc1cc(OC)c2c(=O)[nH]c(-c3cc(C)c(OC[C@@H]4CCC(=O)N4)c(C)c3)nc2c1 [Example 92, (S)-2-(3,5-Dimethyl-4-((5-oxopyrrolidin-2-yl)methoxy)phenyl)-5,7-dimethoxyquinazolin-4(3H)-one]	Active

The next lines start with the values.

FRET activity (<50 uM)	SMILES
Active	COc1cc(OC)c2c(=O)[nH]c(-c3ccc(N4CCN(C(C)=O)C(C)C4)cc3)nc2c1 (centres unmarked) [Example 38, 2-(4-(4-Acetyl-3-methylpiperazin-1-yl)phenyl)-5,7-dimethoxyquinazolin-4(3H)-one]
Active	COc1cc(OC)c2c(=O)[nH]c(-c3ccc(N4CCC(NC(C)=O)C4)cc3)nc2c1 (centres unmarked) [Example 39, N-(1-(4-(5,7-Dimethoxy-4-oxo-3,4-dihydroquinazolin-2-yl)phenyl)pyrrolidin-3-yl)acetamide]
Inactive	COc1cc(OC)c2c(=O)[nH]c(-c3ccc(N4CCC(N(C(C)=O)C(C)C)CC4)cc3)nc2c1 [Example 40, N-(1-(4-(5,7-dimethoxy-4-oxo-3,4-dihydroquinazolin-2-yl)phenyl)piperidin-4-yl)-N-isopropylacetamide]
Active	COc1cc(OC)c2c(=O)[nH]c(-c3ccc(N4C[C@@H](C)N(C(C)C)[C@@H](C)C4)cc3)nc2c1 [Example 42, 2-(4-((3R,5S)-4-Isopropyl-3,5-dimethylpiperazin-1-yl)phenyl)-5,7-dimethoxyquinazolin-4(3H)-one]
Active	COc1cc(OC)c2c(=O)[nH]c(-c3ccc(C4CCNCC4)cc3)nc2c1 [Example 43, 5,7-Dimethoxy-2-(4-(piperidin-4-yl)phenyl)quinazolin-4(3H)-one]
Active	CNC1CCN(c2ccc(-c3nc4cc(OC)cc(OC)c4c(=O)[nH]3)cc2)C1 (centres unmarked) [Example 44, 5,7-Dimethoxy-2-(4-(3-(methylamino)pyrrolidin-1-yl)phenyl)quinazolin-4(3H)-one]
Active	COc1cc(OC)c2c(=O)[nH]c(-c3ccc(N4CCC(N(C)C(C)=O)C4)cc3)nc2c1 (centres unmarked) [Example 46, N-(1-(4-(5,7-dimethoxy-4-oxo-3,4-dihydroquinazolin-2-yl)phenyl)pyrrolidin-3-yl)-N-methylacetamide]
Active	COc1cc(OC)c2c(=O)[nH]c(-c3ccc(N4CCC(NC(C)C)CC4)cc3)nc2c1 [Example 47, 2-(4-(4-(Isopropylamino)piperidin-1-yl)phenyl)-5,7-dimethoxyquinazolin-4(3H)-one]
Active	COc1cc(OC)c2c(=O)[nH]c(-c3ccc(N4CCNC(C)C4)cc3)nc2c1 (centres unmarked) [Example 48, 5,7-Dimethoxy-2-(4-(3-methylpiperazin-1-yl)phenyl)quinazolin-4(3H)-one]
Active	COc1cc(OC)c2c(=O)[nH]c(-c3ccc(N4CCC(N(Cc5ccccc5)C(C)=O)CC4)nc3)nc2c1 [Example 49, N-Benzyl-N-(1-(5-(5,7-dimethoxy-4-oxo-3,4-dihydroquinazolin-2-yl)pyridin-2-yl)piperidin-4-yl)acetamide]
Active	COc1cc(OC)c2c(=O)[nH]c(-c3ccc(N4CCC(NCc5ccccc5)CC4)nc3)nc2c1 [Example 50, 2-(6-(4-(Benzylamino)piperidin-1-yl)pyridin-3-yl)-5,7-dimethoxyquinazolin-4(3H)-one]
Active	COc1cc(OC)c2c(=O)[nH]c(-c3ccc(N4CCN(C=O)CC4)cc3)nc2c1 [Example 51, 4-(4-(5,7-Dimethoxy-4-oxo-3,4-dihydroquinazolin-2-yl)phenyl)piperazine-1-carbaldehyde]
Active	COc1cc(OC)c2c(=O)[nH]c(-c3ccc(NS(C)(=O)=O)cc3)nc2c1 [Example 59, N-(4-(5,7-Dimethoxy-4-oxo-3,4-dihydroquinazolin-2-yl)phenyl)methanesulfonamide]
Inactive	COc1cc(OC)c2c(=O)[nH]c(-c3ccc(Nc4ccc(C)cc4)cc3)nc2c1 [Example 61, 5,7-Dimethoxy-2-(4-(p-tolylamino)phenyl)quinazolin-4(3H)-one]
Active	COc1cc(OC)c2c(=O)[nH]c(-c3ccc(Nc4cccnc4)cc3)nc2c1 [Example 62, 5,7-Dimethoxy-2-(4-(pyridin-3-ylamino)phenyl)quinazolin-4(3H)-one]
Active	COc1cc(OC)c2c(=O)[nH]c(-c3ccc(OC4CCN(C(=O)N(C)C)CC4)cc3)nc2c1 [Example 63, 4-(4-(5,7-Dimethoxy-4-oxo-3,4-dihydroquinazolin-2-yl)phenoxy)-N,N-dimethylpiperidine-1-carboxamide]
Active	COc1cc(OC)c2c(=O)[nH]c(-c3ccc(OC4CCN(C(C)=O)CC4)cc3)nc2c1 [Example 64, 2-(4-(1-Acetylpiperidin-4-yloxy)phenyl)-5,7-dimethoxyquinazolin-4(3H)-one]
Active	COc1cc(OC)c2c(=O)[nH]c(-c3ccc(CN4CCN(C(C)C)CC4)cc3)nc2c1 [Example 93, 2-(4-((4-Isopropylpiperazin-1-yl)methyl)phenyl)-5,7-dimethoxyquinazolin-4(3H)-one]
Active	COc1cc(OC)c2c(=O)[nH]c(-c3ccc(CN4CCC(N(C(C)=O)C(C)C)CC4)cc3)nc2c1 [Example 94, N-(1-(4-(5,7-Dimethoxy-4-oxo-3,4-dihydroquinazolin-2-yl)benzyl)piperidin-4-yl)-N-isopropylacetamide]
